Experimental data: patent US7488740B2, “Substituted quinolin-4-ylamine analogues” (Neurogen Corporation, priority 2003, dated 2009)

Target: T1, human capsaicin receptor (Homo sapiens, UniProt Q8NER1)
T1 construct: A cDNA encoding full length human capsaicin receptor recited in U.S. Pat. No. 6,482,611 was subcloned in the plasmid pBK-CMV; expressed in transfected cells
Assay: Calcium mobilization assay (Example 6)
Format: cell-based
Settings: concentration required to provide a 50% decrease in the fluorescence response of cells exposed to one IC50 of capsaicin
How it was run: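 HEK293 clonal lines stably expressing full-length human capsaicin receptor, Fluo-3 AM loaded in KRH buffer pH 7.4. Compounds (final 1-5 μM) preincubated 0.5-6 h at room temperature in the dark, then capsaicin added at its predetermined IC50 concentration. FLIPR calcium signal at 30-60 s; IC50 = antagonist concentration giving 50% decrease.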

T1 sequence (Q8NER1 whole entry): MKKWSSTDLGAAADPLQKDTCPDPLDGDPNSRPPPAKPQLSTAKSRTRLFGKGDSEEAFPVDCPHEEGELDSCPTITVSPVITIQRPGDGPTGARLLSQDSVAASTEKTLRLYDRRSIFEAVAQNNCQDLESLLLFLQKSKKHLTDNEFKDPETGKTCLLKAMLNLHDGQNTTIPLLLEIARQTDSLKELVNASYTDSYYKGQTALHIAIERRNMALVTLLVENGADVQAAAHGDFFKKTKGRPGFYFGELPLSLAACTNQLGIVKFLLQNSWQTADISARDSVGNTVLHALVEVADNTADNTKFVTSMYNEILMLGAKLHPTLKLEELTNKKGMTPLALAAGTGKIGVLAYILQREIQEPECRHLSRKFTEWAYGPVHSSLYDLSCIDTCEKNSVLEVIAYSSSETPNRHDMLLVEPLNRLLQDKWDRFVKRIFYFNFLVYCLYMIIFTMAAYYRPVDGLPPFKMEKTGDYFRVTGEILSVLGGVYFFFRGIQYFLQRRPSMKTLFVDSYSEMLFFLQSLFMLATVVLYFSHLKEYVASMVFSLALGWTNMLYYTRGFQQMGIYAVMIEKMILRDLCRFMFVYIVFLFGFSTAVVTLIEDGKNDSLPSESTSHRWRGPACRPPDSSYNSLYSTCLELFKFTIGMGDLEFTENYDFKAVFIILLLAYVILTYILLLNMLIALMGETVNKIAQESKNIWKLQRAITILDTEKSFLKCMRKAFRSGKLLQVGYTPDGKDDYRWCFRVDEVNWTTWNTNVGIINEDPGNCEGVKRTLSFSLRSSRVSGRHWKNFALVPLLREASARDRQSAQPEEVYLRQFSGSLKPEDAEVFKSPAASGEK

Row | IC50 | Structure (SMILES)
1 | ≤ 1000 nM | CC(C)CN(Cc1cc(Nc2ccc(C(F)(F)F)cc2)c2ccc(-c3ncccc3C(F)(F)F)nc2n1)S(C)(=O)=O [Compound 80, N-isobutyl-N-({4-{[4-(trifluoromethyl)phenyl]amino}-7-[3-(trifluoromethyl)pyridin-2-yl]-1,8-naphthyridin-2-yl}methyl)methanesulfonamide]
2 | ≤ 1000 nM | CC1CCCN1Cc1cc(Nc2ccc(C(F)(F)F)cn2)c2ccc(-c3ncccc3C(F)(F)F)nc2n1 (stereo not shown) [Compound 93, 2-[(2-methylpyrrolidin-1-yl)methyl]-7-[3-(trifluoromethyl)pyridin-2-yl]-N-[5-(trifluoromethyl)pyridin-2-yl]-1,8-naphthyridin-4-amine]
3 | ≤ 1000 nM | CCc1ccc(Nc2ccnc3nc(-c4ncccc4C(F)(F)F)ccc23)nc1 [Compound 143, N-(5-ethylpyridin-2-yl)-7-[3-(trifluoromethyl)pyridin-2-yl]-1,8-naphthyridin-4-amine]
4 | ≤ 1000 nM | Oc1cc(Nc2ccc(C(F)(F)F)cn2)c2ccc(-c3ncccc3C(F)(F)F)nc2n1 [Compound 97, 7-[3-(trifluoromethyl)pyridin-2-yl]-4-{[5-(trifluoromethyl)pyridin-2-yl]amino}-1,8-naphthyridin-2-ol]
5 | ≤ 1000 nM | FC(F)(F)c1ccc(Nc2cc(N3CCOCC3)nc3nc(-c4ncccc4C(F)(F)F)ccc23)nc1 [Compound 129, 2-morpholin-4-yl-7-[3-(trifluoromethyl)pyridin-2-yl]-N-[5-(trifluoromethyl)pyridin-2-yl]-1,8-naphthyridin-4-amine]
6 | ≤ 1000 nM | CCCOCc1cc(Nc2ccc(C(F)(F)F)cc2)c2ccc(-c3ncccc3C(F)(F)F)nc2n1 [Compound 43, 2-(propoxymethyl)-N-[4-(trifluoromethyl)phenyl]-7-[3-(trifluoromethyl)pyridin-2-yl]-1,8-naphthyridin-4-amine]
7 | ≤ 1000 nM | CC(C)c1cc(Nc2ccc(C(F)(F)F)cn2)c2ccc(-c3ncccc3C(F)(F)F)nc2n1 [Compound 102, 2-isopropyl-7-[3-(trifluoromethyl)pyridin-2-yl]-N-[5-(trifluoromethyl)pyridin-2-yl]-1,8-naphthyridin-4-amine]
8 | ≤ 1000 nM | CC(=O)COCc1cc(Nc2ccc(C(F)(F)F)cc2)c2ccc(-c3ncccc3C(F)(F)F)nc2n1 [Compound 67, 1-({4-{[4-(trifluoromethyl)phenyl]amino}-7-[3-(trifluoromethyl)pyridin-2-yl]-1,8-naphthyridin-2-yl}methoxy)acetone]
9 | ≤ 1000 nM | Cc1cc(Nc2ccc(C(F)(F)F)cc2)c2ccc(-c3ncccc3C(F)(F)F)cc2n1 [Compound 1, 2-methyl-N-[4-(trifluoromethyl)phenyl]-7-[3-(trifluoromethyl)pyridin-2-yl]quinolin-4-amine]
10 | ≤ 1000 nM | COCc1cc(Nc2ccc(C(F)(F)F)cc2)c2ccc(-c3ncccc3Cl)nc2n1 [Compound 51, 7-(3-chloropyridin-2-yl)-2-(methoxymethyl)-N-[4-(trifluoromethyl)phenyl]-1,8-naphthyridin-4-amine]
11 | ≤ 1000 nM | O=C1OCc2nc3nc(-c4ncccc4C(F)(F)F)ccc3c(Nc3ccc(C(F)(F)F)cc3)c21 [Compound 12, 5-{[4-(trifluoromethyl)phenyl]amino}-2-[3-(trifluoromethyl)pyridin-2-yl]furo[3,4-b]-1,8-naphthyridin-6(8H)-one]
12 | ≤ 1000 nM | CCCN(CCCO)Cc1cc(Nc2ccc(C(F)(F)F)cc2)c2ccc(-c3ncccc3C(F)(F)F)nc2n1 [Compound 79]
13 | ≤ 1000 nM | CC(C)(C)c1ccc(Nc2cc(N3CCCCC3)nc3cc(-c4ncccc4C(F)(F)F)ccc23)cc1 [Compound 26, N-(4-tert-butylphenyl)-2-piperidin-1-yl-7-[3-(trifluoromethyl)pyridin-2-yl]quinolin-4-amine]
14 | ≤ 1000 nM | C[C@@H]1CN(Cc2cc(Nc3ccc(C(F)(F)F)cn3)c3ccc(-c4ncccc4C(F)(F)F)nc3n2)C[C@H](C)O1 [Compound 90, rel-2-{[(2R,6S)-2,6-dimethylmorpholin-4-yl]methyl}-7-[3-(trifluoromethyl)pyridin-2-yl]-N-[5(trifluoromethyl)pyridin-2-yl]-1,8-naphthyridin-4-amine]
15 | ≤ 1000 nM | FC(F)(F)c1cccnc1-c1ccc2c(Nc3ccc(Cl)cn3)ccnc2n1 [Compound 139, N-(5-chloropyridin-2-yl)-7-[3-(trifluoromethyl)pyridin-2-yl]-1,8-naphthyridin-4-amine]
16 | ≤ 1000 nM | COCc1cc(Nc2ccc3c(c2)CN(C)CC3(C)C)c2ccc(-c3ncccc3C(F)(F)F)nc2n1 [Compound 17, 2-(methoxymethyl)-7-[3-(trifluoromethyl)pyridin-2-yl]-N-(2,4,4-trimethyl-1,2,3,4-tetrahydroisoquinolin-7-yl)-1,8-naphthyridin-4-amine]
17 | ≤ 1000 nM | COCc1nc2nc(-c3ncccc3C(F)(F)F)ccc2c(Nc2ccc(C(F)(F)F)cc2)c1C(=O)OC [Compound 4, methyl 2-(methoxymethyl)-4-{[4-(trifluoromethyl)phenyl]amino}-7-[3-(trifluoromethyl)pyridin-2-yl]-1,8-naphthyridine-3-carboxylate]

Row | IC50 | Structure (SMILES)
18 | ≤ 1000 nM | COC(C)c1cc(Nc2ccc(C(C)(C)O)cn2)c2ccc(-c3ncccc3C(F)(F)F)nc2n1 (stereo not shown) [Compound 121, 2-[6-({2-(1-methoxyethyl)-7-[3-(trifluoromethyl)pyridin-2-yl]-1,8-naphthyridin-4-yl}amino)pyridin-3-yl]propan-2-ol]
19 | ≤ 1000 nM | Cc1ccc(Nc2cc(C(C)C)nc3nc(-c4ncccc4C(F)(F)F)ccc23)nc1 [Compound 103, 2-isopropyl-N-(5-methylpyridin-2-yl)-7-[3-(trifluoromethyl)pyridin-2-yl]-1,8-naphthyridin-4-amine]
20 | ≤ 1000 nM | Cc1cc(Nc2ccc(C(F)(F)F)cc2)c2ccc(-c3ncccc3C(F)(F)F)nc2n1 [Compound 48, 2-methyl-N-[4-(trifluoromethyl)phenyl]-7-[3-(trifluoromethyl)pyridin-2-yl]-1,8-naphthyridin-4-amine]
21 | ≤ 1000 nM | CCOCc1cc(Nc2ccc(C(F)(F)F)cc2)c2ccc(-c3ncccc3C(F)(F)F)nc2n1 [Compound 40, 2-(ethoxymethyl)-N-[4-(trifluoromethyl)phenyl]-7-[3-(trifluoromethyl)pyridin-2-yl]-1,8-naphthyridin-4-amine]
22 | ≤ 1000 nM | FC(F)(F)c1ccc(Nc2ccnc3nc(-c4ncccc4Cl)ccc23)nc1 [Compound 136, 7-(3-chloropyridin-2-yl)-N-[5-(trifluoromethyl)pyridin-2-yl]-1,8-naphthyridin-4-amine]
23 | ≤ 1000 nM | CC(C)CNc1cc(Nc2ccc(C(F)(F)F)cn2)c2ccc(-c3ncccc3C(F)(F)F)nc2n1 [Compound 130, N~2~-isobutyl-7-[3-(trifluoromethyl)pyridin-2-yl]-N~4~-[5-(trifluoromethyl)pyridin-2-yl]-1,8-naphthyridine-2,4-diamine]
24 | ≤ 1000 nM | CC(C)NCc1cc(Nc2ccc(C(F)(F)F)cc2)c2ccc(-c3ncccc3C(F)(F)F)nc2n1 [Compound 58, 2-[(isopropylamino)methyl]-N-[4-(trifluoromethyl)phenyl]-7-[3-(trifluoromethyl)pyridin-2-yl]-1,8-naphthyridin-4-amine]
25 | ≤ 1000 nM | COCc1cc(Nc2ccc(C(F)(F)F)cc2)c2ccc(-c3ncccc3C(F)(F)F)nc2n1 [Compound 2]
26 | ≤ 1000 nM | CC(C)CN(CC(=O)O)Cc1cc(Nc2ccc(C(F)(F)F)cc2)c2ccc(-c3ncccc3C(F)(F)F)nc2n1 [Compound 81, N-isobutyl-N-({4-{[4-(trifluoromethyl)phenyl]amino}-7-[3-(trifluoromethyl)pyridin-2-yl]-1,8-naphthyridin-2-yl}methyl)glycine]
27 | ≤ 1000 nM | CC(=O)c1ccc(Nc2ccnc3nc(-c4ncccc4C(F)(F)F)ccc23)nc1 [Compound 141, 1-[6-({7-[3-(trifluoromethyl)pyridin-2-yl]-1,8-naphthyridin-4-yl}amino)pyridin-3-yl]ethanone]
28 | ≤ 1000 nM | OCc1cc(Nc2ccc(C(F)(F)F)cn2)c2ccc(-c3ncccc3C(F)(F)F)nc2n1 [Compound 88, (7-[3-(trifluoromethyl)pyridin-2-yl]-4-{[5-(trifluoromethyl)pyridin-2-yl]amino}-1,8-naphthyridin-2-yl)methanol]
29 | ≤ 1000 nM | CC(C)CCOc1cc(Nc2ccc(C(C)(C)C)cc2)c2ccc(-c3ncccc3C(F)(F)F)cc2n1 [Compound 32, N-(4-tert-butylphenyl)-2-(isopentyloxy)-7-[3-(trifluoromethyl)pyridin-2-yl]quinolin-4-amine]
30 | ≤ 1000 nM | COc1cc(Nc2ccc(C(C)(C)C)cc2)c2ccc(-c3ncccc3C(F)(F)F)nc2n1 [Compound 47, N-(4-tert-butylphenyl)-2-methoxy-7-[3-(trifluoromethyl)pyridin-2-yl]-1,8-naphthyridin-4-amine]
31 | ≤ 1000 nM | FC(F)(F)c1ccc(Nc2cc(CN3CCCCC3)nc3nc(-c4ncccc4C(F)(F)F)ccc23)nc1 [Compound 92, 2-(piperidin-1-ylmethyl)-7-[3-(trifluoromethyl)pyridin-2-yl]-N-[5-(trifluoromethyl)pyridin-2-yl]-1,8-naphthyridin-4-amine]
32 | ≤ 1000 nM | CCc1cc(Nc2ccc(C(C)=O)cn2)c2ccc(-c3ncccc3C(F)(F)F)nc2n1 [Compound 111, 1-[6-({2-ethyl-7-[3-(trifluoromethyl)pyridin-2-yl]-1,8-naphthyridin-4-yl}amino)pyridin-3-yl]ethanone]
33 | ≤ 1000 nM | CCCc1cc(Nc2ccc(C(C)(C)O)cn2)c2ccc(-c3ncccc3C(F)(F)F)nc2n1 [Compound 117, 2-[6-({2-propyl-7-[3-(trifluoromethyl)pyridin-2-yl]-1,8-naphthyridin-4-yl}amino)pyridin-3-yl]propan-2-ol]

Row | Structure (SMILES) | IC50
34 | CC(C)COc1cc(Nc2ccc(C(F)(F)F)cc2)c2ccc(-c3ncccc3C(F)(F)F)cc2n1 [Compound 18, 2-isobutoxy-N-[4-(trifluoromethyl)phenyl]-7-[3-(trifluoromethyl)pyridin-2-yl]quinolin-4-amine] | ≤ 1000 nM
